Laboratory results: publication PMC7748245, “Identification and Optimization of a Series of 8-Hydroxy Naphthyridines with Potent In Vitro Antileishmanial Activity: Initial SAR and Assessment of In Vivo Activity” (Journal of Medicinal Chemistry, 2020)
Read-outs that look alike come from different tables or passages of the source.

How the values were obtained:
Chrom Log D pH7.4 = type: physicochemical; details: for ChromLogDpH7.4 / chromatographic logD: pH 7.4
Description: This assay was conducted as previously described.[11]

[1] = type: in vitro ADME, mouse
Description: As a means of measuring glucuronidation in vitro, 16 was assessed in a mouse liver hepatocyte assay.

L. donovani amastigotes = test: Intramacrophage L. donovani assay (Ld InMac); type: cell-based, Leishmania donovani; details: for LdInMac pIC50 / IC50: supplement sheet; for IC50: read-out: LdInMac pIC50 (converted)
Description: (§1) This assay was conducted as previously described,[8] except for compound exposure time, which was 96 h instead of 72 h.

[2] = Kinetic aqueous solubility; type: physicochemical; details: for solubility kinetic: read-out: Aq Solubility (kinetic aqueous solubility); for solubility: aqueous medium (not further specified), supplement sheet
Description: (§2) These assays were conducted as previously described.[23]

THP-1 cells = test: THP-1 host cell toxicity readout of the intramacrophage assay; type: cell-based, human; details: for THP-1 (pEC50) / EC50: human THP-1 host cells; for THP1 pIC50 / IC50: supplement sheet; for IC50: Homo sapiens, THP-1, read-out: THP1 pIC50 (converted); for EC50: read-out: THP-1 (pEC50) (converted)
Description: as §1

[3] = Mouse liver microsomal intrinsic clearance; type: in vitro ADME; details: for Cli (mouse liver microsomal intrinsic clearance): mouse liver microsomes; for Cli (mouse, ml/min/g): supplement sheet
Description: as §2

Leishmania donovani = test: VL mouse in vivo efficacy model (liver parasite burden, LDU)
Description: (§3) Because of having higher metabolic stability (in mouse liver microsomes) and lower Chrom Log D, compound 16 was progressed into a VL in vivo efficacy study, carried out in our previously described VL mouse model.[7] […] Parasite load was determined in the livers of animals 3 days after cessation of treatment, and parasite burden was expressed in Leishman Donovan units (LDUs, the mean number of amastigotes per liver cell × mg weight of liver). The blood exposure of compound 16 was also determined in dosed animals on days 1 and 5 to better understand the PK/pharmacodynamics (PD) relationship of the series. According to our project criteria, a compound needs to reduce parasite burden by >70% before being considered suitable for progression to lead-optimization, while a reduction of >95% would be considered suitable for a preclinical development candidate.[12]
In vivo studies were carried out as previously described.[12]

[4] = mouse, in vivo
Description: as §3, with “candidate.[12] In the study, miltefosine behaved as expected, reducing parasite levels by >99% at 30 mg/kg qd. After twice daily ip dosing at 50 mg/kg, compound 16 reduced parasite burden in mouse liver by 46%. This provided an early proof of concept for this series but fell short of our target of >70% parasite reduction.” for “candidate.[12]”

[5] = Mouse PK study 50 mg/kg ip (metabolites, tolerability); type: in vivo
Description: Since 7 itself was metabolically unstable (Cli = 10 mg/mL/g), we became interested in transferring the SAR from the triazole subseries (e.g., 16) to investigate its impact on metabolic stability, with a particular focus on glucuronidation. To this end, we synthesized 26 (Table 5) as a direct analogue of triazole 16.
Figure 3 PK profile of 26, showing levels of parent, glucuronide adduct, major hydroxylated metabolite, and other minor metabolites. Data are based on two replicates, with error bars representing the range of the data from the two runs. Blood/water (30 μL, 1:2) were collected following 50 mg/kg ip administration to Balb C mice at prescribed time points; 90 μL of acetonitrile (ACN) was then added to each sample and the samples were centrifuged for 5 min at 7000 rpm; 90 μL of supernatant was removed and added to 50 μL of Milli-Q water before ultrahigh-performance liquid chromatography–quadrupole time-of-flight (UPLC Q-TOF) analysis.
We synthesized a set of benzyl amides, where 4-methoxy analogue 27 and α-methyl-4-fluoro analogue 28 both gave very encouraging profiles, meeting progression criteria in terms of potency, metabolic stability, and clearance. […] Due to its impressive in vitro potency, we selected 28 for progression into an in vivo PK study.
We noted that a related compound from Merck, L-870,810 (30),[17] was reported as a clinical candidate targeting HIV integrase, which progressed as far as phase II clinical trials. […] Also, introducing substituents into the 5-naphthyridyl position had been a successful strategy for improving metabolic stability and potency in the triazole subseries. We therefore investigated a range of 5-substituted naphthyridyl analogues (Table 5). THP-amine 31 and morpholine 32 lost potency compared to parent compound 7, so we switched attention back to 5-phenylnaphthyridines. […] Further combinations of nonaromatic amides with differently substituted 5-phenylnaphthyridines were synthesized, and while changing the phenyl substituent gave flat SAR and no advantage over previous compounds, exploration of the amide led to 34 with a trans-4-methoxycyclopropylamide. Compound 34 gave a good balance of potency, solubility, and microsomal stability and was therefore selected for a mouse PK study.

[6] = system: cell health (mitochondrial integrity); test: GSK eXP: phenotypic cell health assay; type: cell-based; details: GSK eXP panel
Description: (§4) First, the compounds which were poorly tolerated in mice, 28 and 34, were screened against a panel of >30 receptors with known links to in vivo toxicity (GSK-enhanced cross-screen panel (eXP)).[18] […] From this, it was not clear whether the effects seen in the receptor screen were related to the observed in vivo toxicity.

monoamine oxidase A = molecular target: T1, monoamine oxidase A (Homo sapiens, UniProt P21397); test: GSK enhanced cross-screen panel (eXP): monoamine oxidase A; type: biochemical; details: read-out: pIC50 against monoamine oxidase A (converted)
T1 sequence (P21397 1-527): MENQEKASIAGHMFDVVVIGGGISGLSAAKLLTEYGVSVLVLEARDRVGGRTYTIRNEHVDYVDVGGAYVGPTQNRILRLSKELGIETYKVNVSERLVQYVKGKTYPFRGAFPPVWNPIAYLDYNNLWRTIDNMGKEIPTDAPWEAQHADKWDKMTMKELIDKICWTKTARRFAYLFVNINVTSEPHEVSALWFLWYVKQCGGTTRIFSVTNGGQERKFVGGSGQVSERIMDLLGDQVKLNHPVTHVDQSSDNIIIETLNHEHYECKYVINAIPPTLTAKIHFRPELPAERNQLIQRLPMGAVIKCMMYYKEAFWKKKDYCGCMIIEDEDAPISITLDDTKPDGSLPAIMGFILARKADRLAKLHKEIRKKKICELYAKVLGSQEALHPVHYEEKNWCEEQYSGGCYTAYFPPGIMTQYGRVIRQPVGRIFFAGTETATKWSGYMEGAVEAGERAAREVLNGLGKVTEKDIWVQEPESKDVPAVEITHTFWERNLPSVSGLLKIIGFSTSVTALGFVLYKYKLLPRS
Description: as §4

phospholipidosis = test: GSK eXP: phospholipidosis assay; type: cell-based; details: GSK eXP panel
Description: as §4

[7] = molecular target: bile salt export pump (BSEP) (Homo sapiens, UniProt O95342); test: GSK eXP: bile salt export pump (BSEP) assay; type: biochemical; details: GSK eXP panel; read-out: pIC50 in BSEP assay (converted)
bile salt export pump (BSEP), sequence (O95342 whole entry, species assumed): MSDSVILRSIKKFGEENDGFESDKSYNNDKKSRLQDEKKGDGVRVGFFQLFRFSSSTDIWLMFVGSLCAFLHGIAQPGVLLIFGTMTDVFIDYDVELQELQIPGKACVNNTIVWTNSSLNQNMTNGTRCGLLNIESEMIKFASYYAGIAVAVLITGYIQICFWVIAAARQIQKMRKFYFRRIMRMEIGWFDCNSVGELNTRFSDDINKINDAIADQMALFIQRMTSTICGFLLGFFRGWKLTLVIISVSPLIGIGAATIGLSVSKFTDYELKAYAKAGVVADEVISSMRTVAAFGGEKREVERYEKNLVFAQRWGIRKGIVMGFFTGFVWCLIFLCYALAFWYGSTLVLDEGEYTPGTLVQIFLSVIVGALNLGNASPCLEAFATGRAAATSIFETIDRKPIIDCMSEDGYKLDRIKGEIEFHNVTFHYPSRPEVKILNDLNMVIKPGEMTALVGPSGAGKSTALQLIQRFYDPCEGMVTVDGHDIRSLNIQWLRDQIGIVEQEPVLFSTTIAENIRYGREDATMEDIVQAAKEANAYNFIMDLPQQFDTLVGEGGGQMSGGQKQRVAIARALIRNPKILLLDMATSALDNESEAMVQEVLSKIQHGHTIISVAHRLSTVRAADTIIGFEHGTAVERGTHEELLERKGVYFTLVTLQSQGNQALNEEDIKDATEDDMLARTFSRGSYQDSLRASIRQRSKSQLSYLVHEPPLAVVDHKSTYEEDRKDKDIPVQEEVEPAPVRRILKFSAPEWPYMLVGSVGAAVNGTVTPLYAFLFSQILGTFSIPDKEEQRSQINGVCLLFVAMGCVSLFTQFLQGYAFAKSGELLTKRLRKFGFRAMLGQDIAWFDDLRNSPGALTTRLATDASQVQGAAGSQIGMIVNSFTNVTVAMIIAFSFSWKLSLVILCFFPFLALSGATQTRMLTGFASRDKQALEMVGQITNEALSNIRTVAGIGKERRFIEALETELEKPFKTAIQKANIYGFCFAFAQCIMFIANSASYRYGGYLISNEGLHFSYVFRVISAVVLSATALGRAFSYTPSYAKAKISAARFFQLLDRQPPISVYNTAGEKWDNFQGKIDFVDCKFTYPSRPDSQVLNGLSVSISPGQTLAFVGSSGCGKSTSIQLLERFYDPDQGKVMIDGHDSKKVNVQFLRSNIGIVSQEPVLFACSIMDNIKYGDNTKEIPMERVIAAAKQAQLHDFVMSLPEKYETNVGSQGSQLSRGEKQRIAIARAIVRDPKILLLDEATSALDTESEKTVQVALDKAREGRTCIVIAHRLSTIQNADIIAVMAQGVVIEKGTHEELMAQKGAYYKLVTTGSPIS
Description: as §4

[8] = L. donovani amastigotes in THP-1 cells, 96 h compound exposure
[9] = chromatographic (HPLC retention) system, supplement sheet, read-out: ChromLogD
[10] = chromatographic system (Chrom Log D), read-out: ChromLogDpH7.4

| SMILES | ChromLogDpH7.4 (Chrom Log D pH7.4) | ChromLogD (Chrom Log D pH7.4; supplement sheet) | Ld InMac (pEC50) (L. donovani amastigotes; [8]) | LdInMac pIC50 (L. donovani amastigotes) | solubility kinetic [2] | THP-1 (pEC50) (THP-1 cells) | THP1 pIC50 (THP-1 cells) | Cli (mouse liver microsomal intrinsic clearance) [3] | Cli (mouse, ml/min/g) [3] | IC50 (L. donovani amastigotes; Leishmania donovani) | IC50 (THP-1 cells) | chromatographic logD (Chrom Log D pH7.4; [9]) | chromatographic logD (Chrom Log D pH7.4; [10]) | solubility [2] | EC50 (THP-1 cells) | tolerability in mouse PK study ([5]; mouse) | other results |
| --- | --- | --- | --- | --- | --- | --- | --- | --- | --- | --- | --- | --- | --- | --- | --- | --- | --- |
| COc1ccccc1-c1nc(-c2nc(C)n[nH]2)c(O)c2ncccc12 [Compound 16, 5-(2-Methoxyphenyl)-7-(3-methyl-1H-1,2,4-triazol-5-yl)-1,6-naphthyridin-8-ol] | 3.2 | 3.2 | 6.2 | 6.2 | >250 µM | <4.3 | <4.3 | 0.8 mL/min/g | 0.8 mL/min/g | – | – | – | – | – | – | – | glucuronide adduct observed in hepatocytes [1]: negligible amounts of the glucuronide adduct; clearance in mouse hepatocytes ([1]; mouse, hepatocytes): 1.4 mL/min/g; reduction of parasite burden in mouse liver (Leishmania donovani; 50 mg/kg ip twice daily, 5 days): 46%; VL mouse efficacy model Reduction in parasite levels % (Leishmania donovani; supplement sheet): 46%; Tmax [4]: 30 min; Tmax ([4]; ip, 50 mg/kg): 30 min; glucuronidated adducts in blood samples ([4]; ip, 50 mg/kg): presence of glucuronidated adducts; time unbound blood concentration exceeds EC99 ([4]; ip, 50 mg/kg): only during the first hour post-dose |
| CNC(=O)c1nc(-c2ccccc2OC)c2cccnc2c1O [Compound 26, 8-Hydroxy-5-(2-methoxyphenyl)-N-methyl-1,6-naphthyridine-7-carboxamide] | – | – | – | – | – | – | – | – | – | 10 µM | 39.8 µM | – | – | – | – | – | parent remaining in blood ([5]; Balb C mice, 8 h post-dose): significant quantities of parent were still present 8 h post-dose; in vivo glucuronidation / metabolites ([5]; Balb C mice, blood): little evidence of glucuronidation |
| CC(NC(=O)c1ncc2cccnc2c1O)c1ccc(F)cc1 (stereo not shown) [Compound 28, N-(1-(4-Fluorophenyl)ethyl)-8-hydroxy-1,6-naphthyridine-7-carboxamide] | – | – | – | – | > 250 µM | – | – | 3.7 mL/min/g | 3.7 mL/min/g | 0.158 µM | 5.01 µM | 5.1 | 5.1 | > 250 µg/mL | 5.01 µM | proved to be toxic | IC50 ([6]; read-out: pIC50 in phenotypic cell health assay (converted)): 12.6 µM; IC50 (monoamine oxidase A): 3.98 µM; time to symptoms requiring termination ([5]; mouse): ≤ 3.5 h |
| O=C(NCc1ccc(Cl)cc1)c1nc(NC2CCOCC2)c2cccnc2c1O [Compound 31, N-(4-Chlorobenzyl)-8-hydroxy-5-((tetrahydro-2H-pyran-4-yl)amino)-1,6-naphthyridine-7-carboxamide] | 5.3 | 5.3 | 5.3 | 5.3 | >250 µM | <4.3 | <4.3 | 2.2 mL/min/g | 2.2 mL/min/g | – | – | – | – | – | – | – | – |
| COc1ccccc1-c1nc(C(=O)N[C@H]2CC[C@H](OC)CC2)c(O)c2ncccc12 [Compound 34, 8-Hydroxy-N-(trans-4-methoxycyclohexyl)-5-(2-methoxyphenyl)-1,6-naphthyridine-7-carboxamide] | – | – | – | – | > 250 µM | – | – | 1.4 mL/min/g | 1.4 mL/min/g | 1 µM | 39.8 µM | 5.7 | 5.7 | > 250 µg/mL | 39.8 µM | displayed the similar symptoms as with compound 28 | pIC50 in phenotypic cell health assay [6]: showed potency in the cell health assay; EC50 (L. donovani amastigotes; Leishmania donovani, THP-1, 96 h, L. donovani amastigotes in THP-1 cells, 96 h compound exposure, read-out: Ld InMac (pEC50) (converted)): 1 µM; activity in phospholipidosis assay (phospholipidosis): activity; time after which study was terminated ([5]; mouse): 60 min; IC50 [7]: 15.8 µM |
